For one assay, the target named is rat nNOS (Rattus norvegicus (Rat), UniProt P29476). Nature of the assay: Oxyhemoglobin NO assay, Ki (Table 9). Particulars: for e/n: ratio Ki eNOS to Ki rat nNOS; for i/n: ratio Ki iNOS to Ki rat nNOS. It is filed as biochemical.
In a further assay the target is human nNOS (Homo sapiens (Human), UniProt P29475). Description: Oxyhemoglobin NO assay, Ki (Table 9). In kind it is biochemical.

Method for human nNOS: (§1) Oxyhemoglobin assays. The oxyhemoglobin NO assays were performed with purified NOSs using a Biotek Gen5TM microplate reader as previously reported. […] For iNOS, calmodulin and CaCl2) were omitted because iNOS is calcium independent. […] The calculated standard deviations of the assays were less than 10% with all NOSs. […] The selectivity of antagonism of nNOS was determined by calculating the ratios of the Ki values with iNOS or eNOS to those with rat nNOS.
Method for rat nNOS: as §1

What is called Ki is a dissociation constant, usually derived from enzyme kinetics or from competition with a known ligand. On to `Cc1cc(N)nc(CCc2cc(F)cc(N(C)CCNC3CC3)c2)c1` [Compound 23c, N^1-(3-(2-(6-Amino-4-methylpyridin-2-yl)ethyl)-5-fluorophenyl)-N^2-cyclopropyl-N^1-methylethane-1,2-diamine], for which, at rat nNOS, the e/n is 124.3 and the i/n turned out to be 217.8. The Ki at human nNOS was determined as 243 nM.

As to `Cc1cc(N)nc(CCc2cccc(N(C)CCCN)c2)c1` [Compound 10d, N^1-(3-(2-(6-Amino-4-methylpyridin-2-yl)ethyl)phenyl)-N-methylpropane-1,3-diamine], on rat nNOS, the e/n is given as 25 and the i/n is reported as 11.

On to `Cc1cc(N)nc(CCc2cc(F)cc(NCCN(C)C)c2)c1` [Compound 23a, N^1-(3-(2-(6-Amino-4-methylpyridin-2-yl)ethyl)-5-fluorophenyl)-N^2,N^2-dimethylethane-1,2-diamine], for which, on rat nNOS, the e/n is recorded as 136.9 and the i/n amounted to 47.3. This compound came in with a Ki on human nNOS of 758 nM.

`CCNCCN(C)c1cc(F)cc(CCc2cc(C)cc(N)n2)c1` [Compound 23b, N^1-(3-(2-(6-Amino-4-methylpyridin-2-yl)ethyl)-5-fluorophenyl)-N^2-ethyl-N^1-methylethane-1,2-diamine]: on rat nNOS, the e/n was 558.4 and the i/n was found to be 199.4. The inhibitory constant (Ki) on human nNOS stood at 194 nM.

`Cc1cc(N)nc(CCc2cc(F)cc(NCc3cccc(Cl)c3)c2)c1` [Compound 23f, 6-(3-((3-Chlorobenzyl)amino)-5-fluorophenethyl)-4-methylpyridin-2-amine]: at rat nNOS, the e/n is on record as 262.0 and the i/n is 354.1. At human nNOS, this compound yielded a Ki of 2070 nM.

As to `Cc1cc(N)nc(CCc2cccc(N(C)CCN)c2)c1` [Compound 10c, N^1-(3-(2-(6-Amino-4-methylpyridin-2-yl)ethyl)phenyl)-N^1-methylethane-1,2-diamine], on rat nNOS, the e/n came to 172 and the i/n worked out at 47.

For `Cc1cc(N)nc(CCc2cccc(NCCN(C)C)c2)c1` [Compound 10b, N^1-(3-(2-(6-Amino-4-methylpyridin-2-yl)ethyl)phenyl)-N^2,N^2-dimethylethane-1,2-diamine], on rat nNOS, the e/n was 125 and the i/n is 29.

On to `Cc1cc(N)nc(CCc2cc(C#N)cc(N(C)CCNC(C)C)c2)c1` [Compound 21b], for which, on rat nNOS, the e/n was 320.1 and the i/n is given as 361.5. At human nNOS, this compound came in with a Ki of 357 nM.

Consider `CNCCN(C)c1cccc(CCc2cc(C)cc(N)n2)c1` [Compound 10a, N^1-(3-(2-(6-Amino-4-methylpyridin-2-yl)ethyl)phenyl)-N^1,N^2-dimethylethane-1,2-diamine], for which, on rat nNOS, the e/n is recorded as 156 and the i/n was found to be 41.

For the compound `CCNCCN(C)c1cc(C#N)cc(CCc2cc(C)cc(N)n2)c1` [Compound 21a], on rat nNOS, the e/n was 583.7 and the i/n is reported as 178.0. This compound also displayed a Ki at human nNOS of 225 nM.

Regarding `Cc1cc(N)nc(CCc2cc(F)cc(N3CCNCC3)c2)c1` [Compound 23h, 6-(3-Fluoro-5-(piperazin-1-yl)phenethyl)-4-methylpyridin-2-amine], on rat nNOS, the e/n was determined as 82.8 and the i/n was found to be 60.2. Also, on human nNOS, the Ki was 161 nM.

For `Cc1cc(N)nc(CCc2cc(F)cc(NC3CCNCC3)c2)c1` [Compound 23i, 6-(3-Fluoro-5-(piperidin-4-ylamino)phenethyl)-4-methylpyridin-2-amine], at rat nNOS, the e/n was determined as 40.2 and the i/n is listed as 110.9. Besides, the Ki on human nNOS was found to be 384 nM.

`Cc1cc(N)nc(CCc2cc(C#N)cc(N(C)CCc3cccc(F)c3)c2)c1` [Compound 21d]: the i/n at rat nNOS came to 33.7.

As for `CNCCN(C)c1cc(CCc2cc(C)cc(N)n2)cc(C(F)(F)F)c1` [Compound 19a, N^1-(3-(2-(6-Amino-4-methylpyridin-2-yl)ethyl)-5-(trifluoromethyl)phenyl)-N^1,N^2-dimethylethane-1,2-diamine], at rat nNOS, the e/n turned out to be 238 and the i/n is recorded as 122.

The values are drawn from patent US10759791B2, “Mammalian and bacterial nitric oxide synthase inhibitors” (Northwestern University, priority 2014, dated 2020).
